Series [1] concerns GST (cumene hydroperoxide). The series is described as follows: Liver GST activity, cumene hydroperoxide as substrate, after oral dosing of mice. The class given is in vivo. Conditions: female SENCAR mice, even at the highest doses, data not shown.
In a further series the test system is GSTp mRNA. The series is described as follows: Northern blot of liver RNA, GSTp mRNA in CAR. The class given is in vivo, mice. Conditions: isopimpinellin 150 mg/kg p.o. 24 h; TC 3 mg/kg i.p. 6 h.
In the next series the test system is P450s 2B9/10. The series is described as follows: Liver microsomal P450 2B activity. The class given is in vivo, mice. Conditions: mouse, in vivo.
Another series concerns GSTμ. The series is described as follows: Western blot of liver cytosol, GSTμ protein expression. Format: in vivo, mice. Conditions: SENCAR mice, 35, 70, 150 mg/kg p.o.
A further series concerns NQO. The series is described as follows: Liver cytosolic NQO activity. Conditions: female SENCAR mice, 35, 70, 150 mg/kg p.o. 4 days, vs corn oil. Format: in vivo, mice.
The subject of another series is P450 1A1/1A2. Conditions: mouse, in vivo.
For a further series, the system named is P450 3A11. The settings on record: mouse, in vivo, po, 100 mg/kg.
A further series deals with GSTπ. Put plainly: Western blot of liver cytosol, GSTπ protein expression. Conditions: SENCAR mice, 35, 70, 150 mg/kg p.o. The class given is in vivo.
For another series, the system named is P450. Put plainly: Liver microsomal P450 content after oral dosing of mice. Format: in vivo. The settings on record: C57BL/6 mice, 100 mg/kg p.o. 3 days, vs corn oil.

This note sets out measurements from publication PMC2585982 (Toxicology and applied pharmacology, 2008).

Take `COc1c2ccoc2c(OC)c2oc(=O)ccc12` [isopimpinellin, 5,8-dimethoxypsoralen]: the “GST activity using cumene hydroperoxide as a substrate” value in series [1] was “no differences”. In the series with GSTp mRNA, the “Increase in hepatic GSTp mRNA, CAR(−/−) mice” value was ≥ 5 fold and the “Increase in hepatic GSTp mRNA, female CAR(+/+) mice” value is ~ 8 fold. Further, in the series on P450s 2B9/10, the “Increase in P450 2B9/10 enzyme activity, dose-response study” value worked out at 300 fold and the “P450 2B activity, liver microsomes, dose-response study” value is reported as “significant increases”. Besides, the “Increase in P450 2B activity (pentoxyresorufin), liver microsomes” value in the series on P450s 2B9/10 (po, 100 mg/kg) was ~ 5 fold. Further, the “Hepatic expression of GST μ protein, dose-response study” value with GSTμ was “no increase”. Besides, in the series with NQO, the “Liver cytosolic NQO activity, dose-response study” value was “increased at all doses”. Further, the “P450 1A1/1A2 protein levels, dose-response study” value with P450 1A1/1A2 is on record as “elevated”. In addition, the “P450 1A1/1A2 protein expression (western blot densitometry)” value in the series with P450 1A1/1A2 (po, 100 mg/kg) was “increased”. For the same molecule, the “P450 3A11 protein expression (western blot densitometry)” value in the series with P450 3A11 was “increased”. Further, in the series on GSTπ, the “Hepatic expression of GST π protein, dose-response study” value is reported as “modest increase”. Moreover, the “P450 content, liver microsomes” value with P450 was “increased”.
